Laboratory results reported in patent US4894388A, “Glycosidase inhibitors and use thereof” (priority 1988, dated 1990).

How the values were obtained:
[1] = target: T1, cytosolic (neutral) α-D-mannosidase (Homo sapiens, UniProt Q9NTJ4); test: Inhibition of cytosolic (neutral) α-D-mannosidase, fluorigenic 4-methylumbelliferyl glycoside substrate; format: biochemical; settings: for inhibition at 1000 µM: 1 mM inhibitor, 0.5 mM substrate, pH 6.5, mean of 2-4 determinations
T1 construct: Post mortem human liver, which had been stored at -20° C; from tissue; host or cells: post mortem human liver, 37,000 g supernatant; concanavalin A-Sepharose fraction
T1 sequence (Q9NTJ4 1-1040): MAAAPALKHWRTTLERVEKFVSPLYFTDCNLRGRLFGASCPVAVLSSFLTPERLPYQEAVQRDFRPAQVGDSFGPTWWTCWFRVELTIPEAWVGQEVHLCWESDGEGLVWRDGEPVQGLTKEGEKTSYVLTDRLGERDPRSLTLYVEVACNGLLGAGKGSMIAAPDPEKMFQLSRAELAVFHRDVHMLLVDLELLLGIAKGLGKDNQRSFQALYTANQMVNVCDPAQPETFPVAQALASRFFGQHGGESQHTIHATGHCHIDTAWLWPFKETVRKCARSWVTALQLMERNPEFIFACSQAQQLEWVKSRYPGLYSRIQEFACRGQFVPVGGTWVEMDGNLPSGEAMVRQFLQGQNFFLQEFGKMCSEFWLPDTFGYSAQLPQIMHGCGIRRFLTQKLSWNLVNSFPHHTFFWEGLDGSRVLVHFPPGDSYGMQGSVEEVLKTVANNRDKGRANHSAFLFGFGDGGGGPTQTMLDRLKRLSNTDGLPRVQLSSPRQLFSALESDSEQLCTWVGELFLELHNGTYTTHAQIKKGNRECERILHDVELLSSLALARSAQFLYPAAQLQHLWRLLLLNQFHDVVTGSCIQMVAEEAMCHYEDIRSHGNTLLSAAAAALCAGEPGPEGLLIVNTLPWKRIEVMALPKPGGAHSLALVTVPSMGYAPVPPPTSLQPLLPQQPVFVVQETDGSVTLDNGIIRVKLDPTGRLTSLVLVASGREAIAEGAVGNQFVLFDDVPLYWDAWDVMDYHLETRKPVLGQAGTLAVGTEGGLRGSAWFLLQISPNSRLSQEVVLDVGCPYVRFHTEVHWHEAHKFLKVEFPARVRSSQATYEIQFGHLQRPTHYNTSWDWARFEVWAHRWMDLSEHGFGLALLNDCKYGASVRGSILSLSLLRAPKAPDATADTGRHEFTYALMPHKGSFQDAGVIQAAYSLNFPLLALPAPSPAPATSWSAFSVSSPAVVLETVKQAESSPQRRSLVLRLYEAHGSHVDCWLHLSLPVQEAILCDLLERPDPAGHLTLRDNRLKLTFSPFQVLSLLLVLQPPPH
Description: (§1) Post mortem human liver, which had been stored at -20° C. until required was homogenized in deionized water (50%, w/v) in a Potter-Elvehjem homogenizer and then centrifuged at 37,000 g for 30 min in an MSE 18 centrifuge. The resultant supernatant was used as the source of enzymic activities.
(§2) The glycosidase activities in an extract of normal human liver were assayed by using the appropriate fluorigenic 4-methylumbelliferyl glycoside substrate (Koch-Light, Haverhill, Suffolk, U.K.) with a concentration of 0.5 mM at the optimal pH of each enzyme [Burditt et al., Clin. Chim. Acta 140, 201-209 (1980)]. Human liver acidic (lysomal) and neutral (cystosolic) α-D-mannosidases were assayed similarly at their pH-optima, of 4.0 and 6.5, respectively, after separation by affinity chromatography on concanavalin A-Sepharose® (Pharmacia Ltd, Milton Keynes, Bucks, U.K.) [Phillips et al., Biochem. J. 153, 579-587 (1976)]. The residual intermediate (Golgi) α-mannosidase II activity in extracts of fibroblasts from a patient with the lysosomal storage disease, mannosidosis, was assayed at pH 5.75 using the synthetic substrate (Burditt et al, Ibid.). The specificity of the inhibitors was determined by assaying the glycosidases in the presence and absence of a 1 mM solution of each compound. The nature of the inhibition and the value of Ki were determined using the Dixon graphical procedure.
(§3) Enzymic activities were measured in the presence and absence of 1 mM inhibitor. Inhibition (%) was calculated as the fraction of activity lost in the presence of inhibitor. The values are means of two to four independent determinations.

β-D-mannosidase = target: T2, β-D-mannosidase (Homo sapiens, UniProt O00462); test: Inhibition of β-D-mannosidase in human liver extract; format: biochemical; settings: 1 mM inhibitor; 0.5 mM substrate; optimal pH; mean of 2-4 determinations
T2 construct: The glycosidase activities in an extract of normal human liver were assayed; from tissue; host or cells: post mortem human liver, 37,000 g supernatant
T2 sequence (O00462 18-879): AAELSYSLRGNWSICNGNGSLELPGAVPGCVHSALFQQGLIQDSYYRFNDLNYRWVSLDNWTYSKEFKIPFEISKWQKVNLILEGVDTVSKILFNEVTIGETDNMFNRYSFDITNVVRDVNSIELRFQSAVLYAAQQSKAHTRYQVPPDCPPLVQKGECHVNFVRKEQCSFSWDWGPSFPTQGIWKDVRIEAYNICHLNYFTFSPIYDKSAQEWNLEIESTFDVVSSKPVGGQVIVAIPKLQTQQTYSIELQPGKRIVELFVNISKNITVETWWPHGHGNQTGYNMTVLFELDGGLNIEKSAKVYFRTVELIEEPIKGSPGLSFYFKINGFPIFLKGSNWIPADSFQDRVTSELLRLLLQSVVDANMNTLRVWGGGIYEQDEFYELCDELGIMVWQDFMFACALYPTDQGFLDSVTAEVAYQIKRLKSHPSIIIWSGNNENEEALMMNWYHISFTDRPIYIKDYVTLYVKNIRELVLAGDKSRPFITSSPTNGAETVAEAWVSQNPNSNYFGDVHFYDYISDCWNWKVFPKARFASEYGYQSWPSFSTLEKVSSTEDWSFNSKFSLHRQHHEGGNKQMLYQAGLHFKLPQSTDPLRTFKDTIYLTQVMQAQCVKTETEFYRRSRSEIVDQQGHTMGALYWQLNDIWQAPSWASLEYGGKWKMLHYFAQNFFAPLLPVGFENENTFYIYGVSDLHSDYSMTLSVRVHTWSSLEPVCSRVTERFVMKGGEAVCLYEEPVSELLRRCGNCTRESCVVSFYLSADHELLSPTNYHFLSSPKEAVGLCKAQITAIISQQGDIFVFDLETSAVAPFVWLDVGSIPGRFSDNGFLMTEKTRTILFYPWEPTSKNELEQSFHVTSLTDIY
Description: as §1, §2, §3

inhibition at 1000 µM [1]	inhibition at 1000 µM (β-D-mannosidase)	SMILES	inhibition of neutral cytosolic α-D-mannosidase (in words) ([1]; relative to α-D-mannosidase II)
4%	0%	OC[C@H](O)[C@H]1[C@H](O)[C@H](O)CN1Cc1ccccc1 [N-benzyl DIA, N-benzyl-1,4-dideoxy-1,4-imino-L-allitol]	–
20%	4%	CN1C[C@@H](O)[C@@H](O)[C@@H]1[C@@H](O)CO [N-methyl DIA, N-methyl-1,4-dideoxy-1,4-imino-L-allitol]	–

SMILES	inhibition at 1000 µM [1]	inhibition at 1000 µM (β-D-mannosidase)	inhibition of neutral cytosolic α-D-mannosidase (in words) ([1]; relative to α-D-mannosidase II)
OC[C@H](O)[C@@H]1NC[C@@H](O)[C@H]1O [DIA, 1,4-dideoxy-1,4-imino-L-allitol]	61%	14%	to a lesser extent
